Source: paper PMC5320522, “Membrane targeting of TIRAP is negatively regulated by phosphorylation in its phosphoinositide-binding motif” (Scientific Reports, 2017)
Like-named read-outs stand apart in the source and are kept apart here.

Columns and labels:
Type in all cases: binding
[1] = target: T1, TIRAP PBM (Homo sapiens, UniProt P58753); test: 1H, […]-HSQC NMR; lipid-protein overlay; details: DPC micelles, pH 6, 25 °C (NMR)
T1 construct: recombinant (isotope-labelled) or synthetic (Thr28-P); GST-fused in overlay assays

[2] = target: T1, TIRAP PBM; test: SPR, L1 chip with liposomes, steady-state fit; details: DOPC liposomes with 5% PtdIns(4,5)P2; 20 mM HEPES pH 7, 100 mM NaCl; room temperature; synthetic peptide phosphorylated at Thr28; saturation not reached
[3] = target: T1, TIRAP PBM; test: SPR, L1 chip with liposomes, steady-state fit; details: DOPC liposomes with 5% PtdIns(4,5)P2; 20 mM HEPES pH 7, 100 mM NaCl; room temperature; read-out: KD (apparent)

T1 sequence (P58753 15-35): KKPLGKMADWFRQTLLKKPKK

Compound | 1H,15N-HSQC NMR; lipid-protein overlay [1] | Kd [2] | Kd [3]
CCCCCCCCCCCCCCCC(=O)OC[C@H](COP(=O)(O)O[C@@H]1[C@H](O)[C@H](O)[C@@H](OP(=O)(O)O)[C@H](OP(=O)(O)O)[C@H]1O)OC(=O)CCCCCCCCCCCCCCC [c16-PtdIns(4,5)P2] | Similar, but larger, resonance perturbations in DPC-embedded TIRAP PBM spectra were observed | – | –
PtdIns(4,5)P2 | – | 787 ± 291 nM | 233 ± 45 nM
